Here are results for eleven compounds from US10118947B2, “Modulation of structured polypeptide specificity” (BICYCLE THERAPEUTICS LIMITED, priority 2013, dated 2018).

For orientation: Ki means the dissociation constant of the complex between target and ligand, obtained from inhibition or displacement.

In data set [1] the target is T1, rat plasma Kallikrein (Rattus norvegicus, UniProt P14272).
T1 construct: polyhistidine tag (N, cleaved yes); proTEV cleavage site (pro-peptide linker) (N, cleaved yes); made in house; host or cells: HEK-293 (suspension-adapted)
T1 sequence (P14272 391-638 limits assumed): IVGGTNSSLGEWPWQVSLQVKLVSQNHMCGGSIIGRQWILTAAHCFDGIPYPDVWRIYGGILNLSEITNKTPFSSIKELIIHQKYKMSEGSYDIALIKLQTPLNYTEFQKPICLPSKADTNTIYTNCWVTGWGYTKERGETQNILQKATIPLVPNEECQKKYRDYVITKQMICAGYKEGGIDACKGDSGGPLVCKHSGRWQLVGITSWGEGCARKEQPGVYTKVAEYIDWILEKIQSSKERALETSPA
Nature of the data set: Functional enzyme inhibition assay with fluorogenic substrate Z-PheArg-AMC, rat plasma Kallikrein. Type of data set: biochemical. As for the experimental part: Functional enzyme assays were conducted in 10 mM Tris HCl, 150 mM NaCl, 10 mM MgCl2, 1 mM CaCl2) and 1 mg/mL BSA (all Sigma UK) pH7.4 at 25° C. in solid black 96 well plates. Briefly 26.5 pM human plasma Kallikrein (purchased from Stratech, UK) or 500 pM rat plasma Kallikrein (expressed and purified in house) were incubated in the absence or presence of increasing concentrations of test peptide for 15 minutes before addition of the fluorogenic substrate Z-PheArg-AMC (Enzo Lifesciences UK) to a final assay concentration of 100 μM in 4% DMSO. Release of AMC was measured using a Pherastar FS (BMG Labtech), excitation 360 nm, emission 460 nm. The rate of the linear phase of the reaction, typically 5 to 45 minutes, was calculated in MARS data analysis software (BMG labtech). The rate was then used to calculate the IC50 and Ki in Prism (GraphPad). A four parameter inhibition non-linear regression equation was used to calculate the IC50.
Peptides were dissolved as the TFA-salts in their powder form, and stock solutions were usually prepared in water. All solutions were centrifuged and filtered ([…] syringe filters) prior absorption measurement at 280 nm. Extinction coefficients were calculated based on the Trp/Tyr content of the peptide, and that of TMB (the TMB core, when contained in a peptide, has an ε of ˜300 M^−1cm^−1). For peptides containing non-natural amino acids with suspected chromophoric properties (i.e. NorHar, 4PhenylPro, 3Pal, 4Pal, Tic, 4GuanPhe, 4,4-BPAI, 3,3-DPA, 1NAI, 2NAI, 4BenzylPro, Ind) concentrations were determined by weighing the powder and dissolving the peptide in a defined quantity of water.

The target of another data set is T2, human plasma Kallikrein (Homo sapiens, UniProt P03952).
T2 construct: purchased Stratech, UK
T2 sequence (P03952 20-638): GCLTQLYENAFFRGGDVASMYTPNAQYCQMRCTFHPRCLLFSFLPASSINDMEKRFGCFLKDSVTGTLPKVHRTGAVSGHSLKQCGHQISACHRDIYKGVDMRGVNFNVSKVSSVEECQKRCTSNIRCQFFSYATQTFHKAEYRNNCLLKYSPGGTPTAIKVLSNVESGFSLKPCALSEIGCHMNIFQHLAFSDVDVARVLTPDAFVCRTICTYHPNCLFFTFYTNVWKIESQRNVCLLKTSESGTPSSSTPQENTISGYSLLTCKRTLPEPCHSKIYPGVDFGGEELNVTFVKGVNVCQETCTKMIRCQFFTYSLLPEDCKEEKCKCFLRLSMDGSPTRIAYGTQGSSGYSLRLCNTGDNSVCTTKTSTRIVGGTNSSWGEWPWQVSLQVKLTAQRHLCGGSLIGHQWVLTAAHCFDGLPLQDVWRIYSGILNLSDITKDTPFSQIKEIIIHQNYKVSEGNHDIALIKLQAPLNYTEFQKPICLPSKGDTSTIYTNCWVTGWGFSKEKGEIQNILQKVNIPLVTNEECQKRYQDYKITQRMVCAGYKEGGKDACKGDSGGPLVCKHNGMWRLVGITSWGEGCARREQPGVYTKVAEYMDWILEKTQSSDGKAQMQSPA
Nature of the data set: Functional enzyme inhibition assay with fluorogenic substrate Z-PheArg-AMC, human plasma Kallikrein. Type of data set: biochemical. Summed up: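 Human plasma kallikrein at 26.5 pM was preincubated 15 minutes with test peptide in Tris/NaCl/MgCl2/CaCl2/BSA buffer pH7.4 at 25° C, then Z-PheArg-AMC added to 100 μM final in 4% DMSO.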

Data set [2] concerns the target T1, rat plasma Kallikrein. As to conditions: Table 1; read-out: Ki (nM) (rat kallikrein); cited from earlier work.
The nature of data set [3]: Plasma stability / fragment profiling Method #2 (MALDI-TOF, 95% plasma), human plasma. It counts as in vitro ADME. As to conditions: Table 3a; peptide fragments observed after incubation in human plasma. The method, then: To obtain stability data more rapidly, peptides were also assessed in 95% plasma. Here, PBS was omitted, and a 1 mM peptide stock (in DMSO) was directly diluted into plasma (i.e. 2.5 uL stock into 47.5 uL plasma), giving a final concentration of 50 uM. 5 uL samples were taken at appropriate time points and frozen at −80 deg C. For analysis, the samples were defrosted, mixed with 15 uL of 1:1 acetonitrile:methanol, and centrifuged at 13 k for 5 min. 5 uL of the peptide-containing supernatant was aspirated and mixed with 30 mM ammonium bicarbonate in a 1:1 mixture of acetonitrile:H2O. 1 uL of this was then spotted on the MALDI plate and analysed as described above. As above, it should be noted that this is a qualitative assay serves to detect relative changes in plasma stability.
Ac-06-34-18(TMB)-NH2 Phe2 Tyr4 (referred to as wild type peptide) was subsequently subjected to human plasma, and analysed for fragments to appear over time. This was compared to the degradation profile observed in human plasma using the NMe-Arg5 derivative of 06-34-18 (FIGS. 18a and 18b). Fragmentation was determined according to Method #2.

[4] abbreviates: Table 26a, loop2 stability enhanced candidates.
The mark [5] stands for this setting: Table 24a, residue 6 modification in the context of Ac-(06-34-18) Phe2 Tyr4, read-out: Ki (nM) Ac-(06-34-18) Phe2 Tyr4.
[6] abbreviates: Table 26b, loop 1 and loop 2 modified derivatives.
[7] abbreviates: Table 26b, loop 1 and loop 2 modified derivatives, read-out: Ki (nM) (human kallikrein).

Where two headings read alike, the source gives them in different places. Numbered stars: 1 amine (or outer) side, 2 acyl side, 3 side chain; on linkers, the order of the positions; unused ones are H or OH. Bridge positions count the residues as written; N and C are the ends. Square brackets hold non-standard residues; d marks the D form. Peptide text beside a SMILES is read from it. Phe(4-guanidino) = N=C(N)Nc1ccc(C[C@H](N)C(=O)O)cc1; TBMB = c1c(C[*:1])cc(C[*:3])cc1C[*:2]; NMeR = CN[C@@H](CCCNC(=N)N)C(=O)O; hArg = N=C(N)NCCCC[C@H](N)C(=O)O; Chg = N[C@H](C(=O)O)C1CCCCC1; Phg = N[C@H](C(=O)O)c1ccccc1; Tle = CC(C)(C)[C@H](N)C(=O)O; Aze = O=C(O)[C@@H]1CCN1

On to `CC(=O)N[C@H]1CSCc2cc3cc(c2)CSC[C@H](NC(=O)[C@H](CCCNC(=N)N)NC(=O)[C@H](Cc2ccc(O)cc2)NC(=O)[C@@H]2CCCN2C(=O)[C@H](Cc2ccccc2)NC(=O)[C@H](CO)NC1=O)C(=O)N[C@@H](c1ccccc1)C(=O)N[C@@H](Cc1c[nH]cn1)C(=O)N[C@@H](CCC(N)=O)C(=O)N[C@@H](CC(=O)O)C(=O)N[C@@H](CC(C)C)C(=O)N[C@H](C(N)=O)CSC3` [Ac-(06-34-18) Phe2 Tyr4 Phg6] (Ac-CSFPYRC[Phg]HQDLC-NH2; linker 1-7-13 via TBMB), for which the Ki was 7.23 nM on rat plasma Kallikrein [1] (setting [4]) and 0.3 nM on human plasma Kallikrein (setting [5]).
Regarding `CC(=O)N[C@H]1CSCc2cc3cc(c2)CSC[C@H](NC(=O)[C@H](CCCCNC(=N)N)NC(=O)[C@H](Cc2ccc(O)cc2)NC(=O)[C@@H]2CCN2C(=O)[C@H](Cc2ccccc2)NC(=O)[C@H](CO)NC1=O)C(=O)N[C@@H](C)CN[C@@H](Cc1c[nH]cn1)C(=O)N[C@@H](CCC(N)=O)C(=O)N[C@@H](CC(=O)O)C(=O)N[C@@H](CC(C)C)C(=O)N[C@H](C(N)=O)CSC3`, the results for the Ki on rat plasma Kallikrein [1] (setting [6]) and at human plasma Kallikrein (setting [7]) were 41 nM and 0.44 nM, respectively.
The like results for `CC(=O)N[C@H]1CSCc2cc3cc(c2)CSC[C@H](NC(=O)[C@H](CCCCNC(=N)N)NC(=O)[C@H](C)NC(=O)[C@@H]2CCN2C(=O)[C@H](Cc2c[nH]c4ccccc24)NC(=O)[C@H](CO)NC1=O)C(=O)N[C@@H](c1ccccc1)C(=O)N[C@@H](Cc1c[nH]cn1)C(=O)N[C@@H](CCC(N)=O)C(=O)N[C@@H](CC(=O)O)C(=O)N[C@@H](CC(C)C)C(=O)N[C@H](C(N)=O)CSC3` [Ac-(06-34-18) Aze3 HArg5 Phg6] (Ac-CSW[Aze]A[hArg]C[Phg]HQDLC-NH2; linker 1-7-13 via TBMB) were, in that order, 57 nM and 0.52 nM.
Turning to `CC(=O)N[C@H]1CSCc2cc3cc(c2)CSC[C@H](NC(=O)[C@H](Cc2ccc(NC(=N)N)cc2)NC(=O)[C@H](Cc2ccc(O)cc2)NC(=O)[C@@H]2CCN2C(=O)[C@H](Cc2ccccc2)NC(=O)[C@H](CO)NC1=O)C(=O)N[C@@H](CC(C)C)C(=O)N[C@@H](Cc1c[nH]cn1)C(=O)N[C@@H](CCC(N)=O)C(=O)N[C@@H](CC(=O)O)C(=O)N[C@@H](CC(C)C)C(=O)N[C@H](C(N)=O)CSC3` [Ac-(06-34-18) Phe2 Aze3Tyr4 4GuanPhe5] (Ac-CSF[Aze]Y[Phe(4-guanidino)]CLHQDLC-NH2; linker 1-7-13 via TBMB), on rat plasma Kallikrein [2], the Ki was 1.2 nM.
As to `CC(=O)N[C@H]1CSCc2cc3cc(c2)CSC[C@H](NC(=O)[C@H](CCCCNC(=N)N)NC(=O)[C@H](Cc2ccc(O)cc2)NC(=O)[C@@H]2CCN2C(=O)[C@H](Cc2ccccc2)NC(=O)[C@H](CO)NC1=O)C(=O)N[C@@H](CC(C)C)C(=O)N[C@@H](Cc1c[nH]cn1)C(=O)N[C@@H](CCC(N)=O)C(=O)N[C@@H](CC(=O)O)C(=O)N[C@@H](CC(C)C)C(=O)N[C@H](C(N)=O)CSC3` [Ac-(06-34-18) Phe2 Aze3 Tyr4 HomoArg5] (Ac-CSF[Aze]Y[hArg]CLHQDLC-NH2; linker 1-7-13 via TBMB), at rat plasma Kallikrein [2], the Ki is 3 nM.
On to `CC(=O)N[C@H]1CSCc2cc3cc(c2)CSC[C@H](NC(=O)[C@H](CCCCNC(=N)N)NC(=O)[C@H](Cc2ccc(O)cc2)NC(=O)[C@@H]2CCN2C(=O)[C@H](Cc2ccccc2)NC(=O)[C@H](CO)NC1=O)C(=O)N[C@@H](CC(C)C)C(=O)N[C@@H](Cc1c[nH]cn1)C(=O)N[C@@H](CCC(=O)O)C(=O)N[C@@H](CC(=O)O)C(=O)N[C@@H](CC(C)C)C(=O)N[C@H](C(N)=O)CSC3` [Ac-(06-34-18) Phe2 Aze3 Tyr4 HArg5 Glu8] (Ac-CSF[Aze]Y[hArg]CLHEDLC-NH2; linker 1-7-13 via TBMB), for which the Ki at rat plasma Kallikrein [1] (setting [6]) amounted to 23 nM; at human plasma Kallikrein (setting [7]) it was 1.65 nM.
For `CC(=O)N[C@H]1CSCc2cc3cc(c2)CSC[C@H](NC(=O)[C@H](CCCCNC(=N)N)NC(=O)[C@H](Cc2ccc(O)cc2)NC(=O)[C@@H]2CCN2C(=O)[C@H](Cc2ccccc2)NC(=O)[C@H](CO)NC1=O)C(=O)N[C@@H](c1ccccc1)C(=O)N[C@@H](Cc1c[nH]cn1)C(=O)N[C@@H](CCC(N)=O)C(=O)N[C@@H](CC(=O)O)C(=O)N[C@@H](CC(C)C)C(=O)N[C@H](C(N)=O)CSC3` [Ac-(06-34-18) Phe2 Aze3 Tyr4 HArg5 Phg6] (Ac-CSF[Aze]Y[hArg]C[Phg]HQDLC-NH2; linker 1-7-13 via TBMB), the Ki at rat plasma Kallikrein [1] (setting [6]) came out at 12 nM; at human plasma Kallikrein (setting [7]), 0.32 nM.
Regarding `CC(=O)N[C@H]1CSCc2cc3cc(c2)CSC[C@H](NC(=O)[C@H](CCCNC(=N)N)NC(=O)[C@H](Cc2ccc(O)cc2)NC(=O)[C@@H]2CCCN2C(=O)[C@H](Cc2ccccc2)NC(=O)[C@H](CO)NC1=O)C(=O)N[C@@H](C1CCCCC1)C(=O)N[C@@H](Cc1c[nH]cn1)C(=O)N[C@@H](CCC(N)=O)C(=O)N[C@@H](CC(=O)O)C(=O)N[C@@H](CC(C)C)C(=O)N[C@H](C(N)=O)CSC3` [Ac-(06-34-18) Phe2 Tyr4 Chg6] (Ac-CSFPYRC[Chg]HQDLC-NH2; linker 1-7-13 via TBMB), the Ki on rat plasma Kallikrein [1] (setting [4]) was 9.09 nM; at human plasma Kallikrein (setting [5]), 0.5 nM.
`CC(=O)N[C@H]1CSCc2cc3cc(c2)CSC[C@H](NC(=O)[C@H](CCCNC(=N)N)N(C)C(=O)[C@H](Cc2ccc(O)cc2)NC(=O)[C@@H]2CCN2C(=O)[C@H](Cc2ccccc2)NC(=O)[C@H](CO)NC1=O)C(=O)N[C@@H](CC(C)C)C(=O)N[C@@H](Cc1c[nH]cn1)C(=O)N[C@@H](CCC(N)=O)C(=O)N[C@@H](CC(=O)O)C(=O)N[C@@H](CC(C)C)C(=O)N[C@H](C(N)=O)CSC3` [Ac-(06-34-18) Phe2 Aze3Tyr4 NMeArg5] (Ac-CSF[Aze]Y[NMeR]CLHQDLC-NH2; linker 1-7-13 via TBMB): the Ki at rat plasma Kallikrein [2] is 31.4 nM.
`CC(=O)N[C@H]1CSCc2cc3cc(c2)CSC[C@H](NC(=O)[C@H](CCCNC(=N)N)NC(=O)[C@H](Cc2ccc(O)cc2)NC(=O)[C@@H]2CCCN2C(=O)[C@H](Cc2ccccc2)NC(=O)[C@H](CO)NC1=O)C(=O)N[C@@H](C)C(=O)N[C@@H](Cc1c[nH]cn1)C(=O)N[C@@H](CCC(N)=O)C(=O)N[C@@H](CC(=O)O)C(=O)N[C@@H](CC(C)C)C(=O)N[C@H](C(N)=O)CSC3` [Ac-(06-34-18) Phe2 Tyr4 Ala6] (Ac-CSFPYRCAHQDLC-NH2; linker 1-7-13 via TBMB): the “Fragments (human plasma)” value in data set [3] is recorded as “-LHQ, -R”. Also, the Ki on human plasma Kallikrein (Table 3a, Alanine scan in Loop2, read-out: Ki) came to 1.9 nM. Moreover, the “F (Kivar/KiWT)” value at human plasma Kallikrein (Table 3a, ratio of Ki to wild type) was determined as 5.
Regarding `CC(=O)N[C@H]1CSCc2cc3cc(c2)CSC[C@H](NC(=O)[C@H](CCCNC(=N)N)NC(=O)[C@H](Cc2ccc(O)cc2)NC(=O)[C@@H]2CCN2C(=O)[C@H](Cc2ccccc2)NC(=O)[C@H](CO)NC1=O)C(=O)N[C@@H](C(C)(C)C)C(=O)N[C@@H](Cc1c[nH]cn1)C(=O)N[C@@H](CCC(N)=O)C(=O)N[C@@H](CC(=O)O)C(=O)N[C@@H](CC(C)C)C(=O)N[C@H](C(N)=O)CSC3` [Ac-(06-34-18) Phe2 Aze3 Tyr4 tBuGly6] (Ac-CSF[Aze]YRC[Tle]HQDLC-NH2; linker 1-7-13 via TBMB), the inhibitory constant (Ki) on rat plasma Kallikrein [1] (setting [6]) turned out to be 193 nM; on human plasma Kallikrein (setting [7]) it was 1.91 nM.
